Data on two molecules can be found in PMC9124820, “In vitro evaluation of fenfluramine and norfenfluramine as victims of drug interactions” (Pharmacology Research & Perspectives, 2022).

The target in data set [1] is T1, OAT1 (Homo sapiens, UniProt Q4U2R8).
T1 construct: host or cells: HEK293
T1 sequence (Q4U2R8 1-563): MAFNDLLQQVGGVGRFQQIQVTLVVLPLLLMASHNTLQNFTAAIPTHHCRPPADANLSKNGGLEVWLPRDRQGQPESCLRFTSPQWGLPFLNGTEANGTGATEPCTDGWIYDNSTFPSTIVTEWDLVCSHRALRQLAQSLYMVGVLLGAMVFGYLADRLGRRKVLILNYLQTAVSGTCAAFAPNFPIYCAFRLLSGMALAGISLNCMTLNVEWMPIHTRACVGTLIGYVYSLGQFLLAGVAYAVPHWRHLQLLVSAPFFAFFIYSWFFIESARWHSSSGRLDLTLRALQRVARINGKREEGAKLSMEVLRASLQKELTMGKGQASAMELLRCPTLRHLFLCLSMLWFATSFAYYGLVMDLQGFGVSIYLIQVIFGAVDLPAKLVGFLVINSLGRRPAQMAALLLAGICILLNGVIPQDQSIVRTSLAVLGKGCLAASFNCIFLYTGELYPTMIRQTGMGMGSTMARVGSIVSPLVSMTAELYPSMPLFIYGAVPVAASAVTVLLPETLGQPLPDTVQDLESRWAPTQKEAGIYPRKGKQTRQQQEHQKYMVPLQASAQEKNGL
Description: Transporter substrate determination, uptake in HEK293-OAT1 cells. The data set is classed as in vitro ADME. Conditions: for Maximum Ratio (uptake in transporter‐expressing cells to empty‐vector control cells): HEK293‐OAT1, 0.1, 1, 10 µM, threshold ≥2‐fold; for substrate of the transporter: OAT1. On the procedure: (§1) LC‐MS/MS analyses to assess metabolic stability and identify the transporter substrate were performed using an API 4000 QTRAP mass spectrometer (SCIEX, Framingham, MA) with electrospray ionization in positive mode. Chromatography was performed using an Atlantis dC18 analytical column (100 × 2.1 mm, 5 µm; Waters Corporation, Milford, MA). Mobile phases were 0.2% v/v formic acid in water and 0.2% v/v formic acid in acetonitrile. For metabolic stability experiments, FFA and metabolites were eluted at a flow rate of 0.6 mL/min, with a linear gradient of 20%−80% acetonitrile from 0.30−2.0 min. For transporter substrate experiments, the gradient was slightly modified to achieve suitable chromatography. The mass transitions monitored were 232.0 > 159.0 for FFA and 348.0 > 330.0 for 1ʹ‐OH‐midazolam‐d4 internal standard.
(§2) FFA and nFFA were evaluated as substrates of the transporters breast cancer resistance protein (BCRP), organic anion transporter (OAT)1, OAT3, organic cation transporter (OCT)2, MATE1, MATE2‐K, and P‐glycoprotein multidrug transporter (P‐gp; also known as MDR1 and ABCB1), according to published methods.[25], [26], [27], [28], [29] Madin‐Darby canine kidney (MDCKII)‐BCRP cells (Netherlands Cancer Institute, Amsterdam, Netherlands) or human embryonic kidney (HEK)293 cells transfected with other transporters (Sekisui Medical Co., Ltd., Tokyo, Japan) were used. Transporter‐transfected and control cells were incubated with FFA or nFFA (0.1, 1, or 10 μM), and the amount of FFA and nFFA accumulated in the cells was measured by LC‐MS/MS as described above. The accumulation of positive control substrates in the presence and absence of an inhibitor served as a positive control for transporter function. […] BCRP substrate determination was made by bi‐directional permeability across MDCKII‐BCRP and control cells cultured on 24‐well transwell plates. Incubation medium containing probe substrate was added. Ten minutes later, transepithelial electrical resistance (TEER) was recorded and cells were preincubated at 37 ± 2°C for 30−60 min before FFA or nFFA or positive control substrate with the solvent control or positive control inhibitor was added to the donor (apical) chamber. […] Samples containing FFA, nFFA, or probe substrate were mixed with internal standard and analyzed by LC‐MS/MS. […] An aliquot was added to 96‐well plate containing scintillation fluid that was analyzed by a MicroBeta^2 scintillation counter (Perkin Elmer, Waltham, MA). Protein concentration was determined by a bicinchoninic acid (BCA) protein assay according to the manufacturer’s protocol (Thermo Fisher Scientific, Waltham, MA). Non‐radiolabeled compounds were resuspended in a 50:50 v/v methanol:water solution containing internal standard and were analyzed by LC‐MS/MS. […]

In data set [2] the target is T2, OCT2 (Homo sapiens, UniProt O15244).
T2 construct: host or cells: HEK293
T2 sequence (O15244 1-555): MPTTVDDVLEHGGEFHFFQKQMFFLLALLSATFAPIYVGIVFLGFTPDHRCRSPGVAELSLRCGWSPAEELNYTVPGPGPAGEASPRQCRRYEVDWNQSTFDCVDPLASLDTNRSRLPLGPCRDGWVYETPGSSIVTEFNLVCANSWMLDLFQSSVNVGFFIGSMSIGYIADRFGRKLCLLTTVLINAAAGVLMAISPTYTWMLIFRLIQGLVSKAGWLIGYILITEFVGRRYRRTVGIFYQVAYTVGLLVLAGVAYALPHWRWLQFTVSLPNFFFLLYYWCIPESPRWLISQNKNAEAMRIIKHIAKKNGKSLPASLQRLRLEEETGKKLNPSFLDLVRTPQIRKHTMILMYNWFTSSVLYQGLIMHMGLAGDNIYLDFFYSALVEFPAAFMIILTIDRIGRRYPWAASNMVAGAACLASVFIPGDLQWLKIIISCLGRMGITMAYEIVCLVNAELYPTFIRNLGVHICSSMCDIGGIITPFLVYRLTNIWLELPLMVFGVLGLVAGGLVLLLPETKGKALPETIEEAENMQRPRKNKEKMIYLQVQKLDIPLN
Description: Transporter substrate determination, uptake in HEK293-OCT2 cells. The data set is classed as in vitro ADME. Conditions: for Maximum Ratio (uptake in transporter‐expressing cells to empty‐vector control cells): HEK293‐OCT2, 0.1, 1, 10 µM, threshold ≥2‐fold; for substrate of the transporter: OCT2. The procedure: as §1, §2

Structures are written as SMILES.

With `CCNC(C)Cc1cccc(C(F)(F)F)c1` (racemic) [FFA, (RS)‐ethyl (α‐methyl‐3‐trifluoromethylphenethyl)amine], in data set [1], the “Maximum Ratio (uptake in transporter‐expressing cells to empty‐vector control cells)” value (from here on “Maximum Ratio”) turned out to be 1.22 and the “substrate of the transporter” value was “not substrates”. In data set [2], the “Maximum Ratio” value is 1.09 and the “substrate of the transporter” value is given as “not substrates”.
Consider `CC(N)Cc1cccc(C(F)(F)F)c1.Cl` (centres unmarked) [nFFA, 1‐(3‐(trifluoromethyl)phenyl)propan‐2‐amine hydrochloride], for which, in data set [1], the “Maximum Ratio” value is on record as 1.13 and the “substrate of the transporter” value is “not substrates”. In addition, in data set [2], the “Maximum Ratio” value is 1.16 and the “substrate of the transporter” value was “not substrates”.
